Values quoted from earlier work as cited in PMC6304311 (Influenza and Other Respiratory Viruses, 2018).
Several values for one entry are separate records, joined by “and”; a condition that tells them apart may be missing. Equal entries are not always repeated. Entries after “also recorded” stand apart in the source; their conditions may differ.

Experiments:
Conditions in all cases: cited from earlier work
[1] = molecular target: NA from influenza B virus isolates (Influenza B virus, UniProt A0A1S5RAG6)
[2] = tested on: NA from influenza A(H1N1)pdm09 virus isolates
[3] = tested on: Influenza A(H1N1)pdm09 H275Y‐resistant phenotype viruses
influenza A(H3N2) = tested on: influenza A(H3N2)
[4] = molecular target: NA from influenza A(H3N2) virus isolates (Influenza A virus, UniProt V5P6L4)
[5] = molecular target: NA from influenza A(H1N1) virus isolates (Influenza A virus, UniProt C0LLZ0)
[6] = tested on: seasonal influenza A(H1N1) viruses
[7] = read-out: IC50, resistant phenotype reference virus

Row | SMILES | susceptibility phenotype of reference virus [1] | susceptibility phenotype of reference virus [2] | IC50 [2, 7] [nM] | patients with H275Y‐resistant phenotype viruses after treatment [3] [%] | effect of I215V NA substitution on susceptibility (influenza A(H3N2)) | frequency of resistance to inhibition (influenza A(H3N2)) | susceptibility phenotype of reference virus [4] | IC50 [4, 7] [nM] | susceptibility phenotype of reference virus [5] | IC50 [5, 7] [nM] | frequency of resistance globally [6] [%] | phenotype of isolates [6]
1 | CCOC(=O)C1=C[C@@H](OC(CC)CC)[C@H](NC(C)=O)[C@@H](N)C1 [oseltamivir] | susceptible; also recorded: resistant | susceptible; also recorded: resistant | 70.6 | 2 | borderline reduction in susceptibility | 0.2% and 1.1% | susceptible; also recorded: resistant | 5.24 | susceptible; also recorded: resistant | 93.2 | 90 | phenotypically resistant
2 | CC(=O)N[C@H]1[C@H]([C@H](O)[C@H](O)CO)OC(C(=O)O)=C[C@@H]1N=C(N)N [zanamivir] |  |  |  |  | borderline reduction in susceptibility |  |  |  |  |  |  | 
